{"source": "patent US11518735B2", "about": "(AE KYUNG INDUSTRIAL CO., LTD, priority 2017, dated 2022)", "test": "Thermal stability by HPLC analysis, samples heated in oven at 90° C.", "format": "physicochemical", "details": "for HPLC peak area: 90° C. oven; for change in peak area (degree of decomposition): after 24 hours versus initial peak area", "experimental": "The thermal stability tests were conducted by heating the compound samples of Formulas 3 and 7 in an oven maintained at 90° C. and measuring the degree of decomposition of each sample.", "note": "“Also recorded” adds a separate entry of the source."}
{"smiles": "CCCCCCCCCC/C=C/C(CC(=O)NCCCCCCCCCCCCCCCCCC)C(=O)O", "note": "(stereo not shown) [Formula 3]", "values": [{"measurement": "HPLC peak area", "setting": "0 hour", "result": 22760548}, {"measurement": "HPLC peak area", "setting": "1 hour", "result": 22871539}, {"measurement": "HPLC peak area", "setting": "24 hours", "result": 22896857}, {"measurement": "change in peak area (degree of decomposition)", "setting": "90° C.", "result": "little change in the peak area ratio"}, {"measurement": "high-temperature stability compared with Formula 7", "setting": "HPLC, 90° C.", "result": "better high-temperature stability; also recorded: improved stability"}]}
{"smiles": "CCCCCCCC/C=C/CCCCCCCCNC(=O)CC(/C=C/CCCCCCCCCCCCCCCC)C(=O)O", "note": "(stereo not shown) [Formula 7, reference compound]", "values": [{"measurement": "HPLC peak area", "setting": "0 hour", "result": 21694395}, {"measurement": "HPLC peak area", "setting": "3 hours", "result": 10982003}, {"measurement": "HPLC peak area", "setting": "6 hours", "result": 11400622}, {"measurement": "HPLC peak area", "setting": "24 hours", "result": 7124834}, {"measurement": "change in peak area (degree of decomposition)", "setting": "90° C.", "result": "nearly one third of the initial peak area"}]}
